Measured values: patent US5358951A, “Angiotensin II receptor blocking 2, 3, 6 substituted quinazolinones” (American Cyanamid Company, priority 1993, dated 1994)

Tested on: vasopressor response of angiotensin II
Assay: AII Challenge: antagonism of angiotensin II vasopressor response
Format: in vivo
Details: for inhibition in vivo at 3 mg/kg / inhibition in vivo at 5 mg/kg: Rattus norvegicus
In short: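 Percent antagonism is based on the systolic blood pressure rise (mmHg) to i.v. angiotensin II at 0.05 and 0.1 ug/kg. Each rat's own predose response was taken as 100%. Challenges were repeated from 30 to 300 min after i.v., i.p. or oral compound in cannulated conscious male SHR, 16-20 weeks old.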

[1] = 1 mg/kg P.O., AII 0.05 mcg/kg IV, 60 min post dose
[2] = 1 mg/kg P.O., AII 0.05 mcg/kg IV, 90 min post dose
[3] = 1 mg/kg P.O., AII 0.05 mcg/kg IV, 120 min post dose
[4] = 1 mg/kg P.O., AII 0.05 mcg/kg IV, 180 min post dose
[5] = 1 mg/kg P.O., AII 0.05 mcg/kg IV, 240 min post dose
[6] = 1 mg/kg P.O., AII 0.1 mcg/kg IV, 60 min post dose
[7] = 1 mg/kg P.O., AII 0.1 mcg/kg IV, 90 min post dose
[8] = 1 mg/kg P.O., AII 0.1 mcg/kg IV, 120 min post dose
[9] = 1 mg/kg P.O., AII 0.1 mcg/kg IV, 180 min post dose
[10] = 1 mg/kg P.O., AII 0.1 mcg/kg IV, 240 min post dose
[11] = 5 mg/kg P.O., AII 0.05 mcg/kg IV, 60 min post dose
[12] = 5 mg/kg P.O., AII 0.1 mcg/kg IV, 60 min post dose

Compound: CCCCc1nc2ccc([C@@]3(C)C[C@@H]4CCCN4O3)cc2c(=O)n1Cc1ccc(-c2ccccc2-c2nnn[nH]2)cc1 (relative stereo) [Example 58, Cis-(+/-)-2-Butyl-6-(hexahydro-2-methylpyrrolo[1,2-1,2-b]isoxazol-2-yl) -3-[[2'-(1H-tetrazol-5-yl) [1,1'-biphenyl]-4-yl]methyl]-4(3H)-quinazolinone]
- % Inhibition [1]: 62%
- Response Average Change [1]: 16 mmHg
- % Inhibition [2]: 68%
- Response Average Change [2]: 13.5 mmHg
- % Inhibition [3]: 67%
- Response Average Change [3]: 14 mmHg
- % Inhibition [4]: 82%
- Response Average Change [4]: 7.5 mmHg
- % Inhibition [5]: 82%
- Response Average Change [5]: 7.5 mmHg
- % Inhibition [6]: 37%
- Response Average Change [6]: 30 mmHg
- % Inhibition [7]: 44%
- Response Average Change [7]: 26.5 mmHg
- % Inhibition [8]: 53%
- Response Average Change [8]: 22.5 mmHg
- % Inhibition [9]: 56%
- Response Average Change [9]: 21 mmHg
- % Inhibition [10]: 68%
- Response Average Change [10]: 15 mmHg
- Response Average Change (3 mg/kg I.V., AII 0.05 mcg/kg IV, 30 min post dose): 0 mmHg
- Response Average Change (3 mg/kg I.V., AII 0.05 mcg/kg IV, 60 min post dose): 5 mmHg
- Response Average Change (3 mg/kg I.V., AII 0.05 mcg/kg IV, 90 min post dose): 2.5 mmHg
- Response Average Change (3 mg/kg I.V., AII 0.05 mcg/kg IV, 120 min post dose): 5 mmHg
- Response Average Change (3 mg/kg I.V., AII 0.05 mcg/kg IV, 180 min post dose): 6.5 mmHg
- Response Average Change (3 mg/kg I.V., AII 0.05 mcg/kg IV, 240 min post dose): 7.5 mmHg
- Response Average Change (3 mg/kg I.V., AII 0.1 mcg/kg IV, 30 min post dose): 10 mmHg
- Response Average Change (3 mg/kg I.V., AII 0.1 mcg/kg IV, 60 min post dose): 4 mmHg
- Response Average Change (3 mg/kg I.V., AII 0.1 mcg/kg IV, 90 min post dose): 2.5 mmHg
- Response Average Change (3 mg/kg I.V., AII 0.1 mcg/kg IV, 120 min post dose): 10 mmHg
- Response Average Change (3 mg/kg I.V., AII 0.1 mcg/kg IV, 180 min post dose): 6.5 mmHg
- Response Average Change (3 mg/kg I.V., AII 0.1 mcg/kg IV, 240 min post dose): 4 mmHg
- % Inhibition [11]: 94%
- Response Average Change [11]: 2.5 mmHg
- Response Average Change (5 mg/kg P.O., AII 0.05 mcg/kg IV, 120 min post dose): 5 mmHg
- Response Average Change (5 mg/kg P.O., AII 0.05 mcg/kg IV, 300 min post dose): 1 mmHg
- % Inhibition [12]: 100%
- Response Average Change [12]: 0 mmHg
- inhibition in vivo at 3 mg/kg (iv, 0.5 h, 3 mg/kg I.V., AII 0.05 mcg/kg IV, 30 min post dose): 100%
- inhibition in vivo at 3 mg/kg (iv, 0.5 h, 3 mg/kg I.V., AII 0.1 mcg/kg IV, 30 min post dose): 78%
- inhibition in vivo at 3 mg/kg (iv, 1 h, 3 mg/kg I.V., AII 0.1 mcg/kg IV, 60 min post dose): 91%
- inhibition in vivo at 3 mg/kg (iv, 2 h, 3 mg/kg I.V., AII 0.1 mcg/kg IV, 120 min post dose): 78%
- inhibition in vivo at 3 mg/kg (iv, 3 h, 3 mg/kg I.V., AII 0.05 mcg/kg IV, 180 min post dose): 83%
- inhibition in vivo at 3 mg/kg (iv, 3 h, 3 mg/kg I.V., AII 0.1 mcg/kg IV, 180 min post dose): 86%
- inhibition in vivo at 3 mg/kg (iv, 4 h, 3 mg/kg I.V., AII 0.05 mcg/kg IV, 240 min post dose): 81%
- inhibition in vivo at 3 mg/kg (iv, 4 h, 3 mg/kg I.V., AII 0.1 mcg/kg IV, 240 min post dose): 91%
- inhibition in vivo at 3 mg/kg (iv, […], 3 mg/kg I.V., AII 0.05 mcg/kg IV, 90 min post dose): 94%
- inhibition in vivo at 3 mg/kg (iv, […], 3 mg/kg I.V., AII 0.1 mcg/kg IV, 90 min post dose): 94%
- inhibition in vivo at 3 mg/kg (po, 0.5 h, 3 mg/kg P.O., AII 0.05 mcg/kg IV, 30 min post dose): 75%
- inhibition in vivo at 5 mg/kg (po, 0.5 h, 5 mg/kg P.O., AII 0.05 mcg/kg IV, 30 min post dose): 90%
- inhibition in vivo at 3 mg/kg (po, 1 h, 3 mg/kg P.O., AII 0.05 mcg/kg IV, 60 min post dose): 92%
- inhibition in vivo at 3 mg/kg (po, 1 h, 3 mg/kg P.O., AII 0.1 mcg/kg IV, 60 min post dose): 67%
- inhibition in vivo at 5 mg/kg (po, 1 h, 5 mg/kg P.O., AII 0.05 mcg/kg IV, 60 min post dose): 94%
- inhibition in vivo at 5 mg/kg (po, 1 h, 5 mg/kg P.O., AII 0.1 mcg/kg IV, 60 min post dose): 100%
- inhibition in vivo at 3 mg/kg (po, 2 h, 3 mg/kg P.O., AII 0.05 mcg/kg IV, 120 min post dose): 67%
- inhibition in vivo at 3 mg/kg (po, 2 h, 3 mg/kg P.O., AII 0.1 mcg/kg IV, 120 min post dose): 91%
- inhibition in vivo at 5 mg/kg (po, 2 h, 5 mg/kg P.O., AII 0.05 mcg/kg IV, 120 min post dose): 88%
- inhibition in vivo at 3 mg/kg (po, 3 h, 3 mg/kg P.O., AII 0.05 mcg/kg IV, 180 min post dose): 75%
- inhibition in vivo at 3 mg/kg (po, 3 h, 3 mg/kg P.O., AII 0.1 mcg/kg IV, 180 min post dose): 74%
- inhibition in vivo at 5 mg/kg (po, 3 h, 5 mg/kg P.O., AII 0.05 mcg/kg IV, 180 min post dose): 75%
- inhibition in vivo at 5 mg/kg (po, 3 h, 5 mg/kg P.O., AII 0.1 mcg/kg IV, 180 min post dose): 89%
- inhibition in vivo at 5 mg/kg (po, 4 h, 5 mg/kg P.O., AII 0.05 mcg/kg IV, 240 min post dose): 93%
- inhibition in vivo at 3 mg/kg (po, 5 h, 3 mg/kg P.O., AII 0.05 mcg/kg IV, 300 min post dose): 57%
- inhibition in vivo at 5 mg/kg (po, 5 h, 5 mg/kg P.O., AII 0.05 mcg/kg IV, 300 min post dose): 98%
- inhibition in vivo at 5 mg/kg (po, 5 h, 5 mg/kg P.O., AII 0.1 mcg/kg IV, 300 min post dose): 84%
- inhibition in vivo at 3 mg/kg (po, […], 3 mg/kg P.O., AII 0.05 mcg/kg IV, 90 min post dose): 75%
- inhibition in vivo at 5 mg/kg (po, […], 5 mg/kg P.O., AII 0.05 mcg/kg IV, 90 min post dose): 88%
- inhibition in vivo at 5 mg/kg (po, […], 5 mg/kg P.O., AII 0.1 mcg/kg IV, 90 min post dose): 84%
